In patent US5384405A, “Process for making N-hydroxyl-2-thio-ouinazolin-4-ones” (Olin Corporation, priority 1994, dated 1995):
≈ marks a conversion by molar mass, not a printed value. Read-outs that look alike come from different tables or passages of the source.

Columns and labels:
Candida albicans = assay: Minimum inhibitory concentration (MIC), serial dilution in broth, Candida albicans; assay type: cell-based; conditions: 120 h, read-out: MIC, A = Candida albicans
Description: (§1) Solutions of the experimental compounds in dimethyl sulfoxide and an aqueous solution of sodium pyrithione were serially diluted in nutrient broth (Tryptic Soy Broth for bacteria and Sabouraud Dextrose Broth for fungi) in microtiter plates. Equal volumes of a broth suspension of bacteria (10^6 CFU/ml) or fungi (10^5 cells or spores/ml) were added to each dilution, and the plates were incubated at 37° C. (bacteria and yeast) or 28° C. (molds). Bacteria, yeast, and molds were incubated two, five, and seven days respectively before determining the highest inhibitory dilution.

Fusarium = assay: Minimum inhibitory concentration (MIC), serial dilution in broth, Fusarium; assay type: cell-based; conditions: 168 h, read-out: MIC, D = Fusarium
Description: as §1

Aspergillus niger = assay: Minimum inhibitory concentration (MIC), serial dilution in broth, Aspergillus niger; assay type: cell-based; conditions: 168 h, read-out: MIC, C = Aspergillus niger
Description: as §1

Aureobasidium pullulans = assay: Minimum inhibitory concentration (MIC), serial dilution in broth, Aureobasidium pullulans; assay type: cell-based; conditions: 168 h, read-out: MIC, B = Aureobasidium pullulans
Description: as §1

[1] = UV stability (photolysis in aqueous solution, immersion well photochemical apparatus); assay type: physicochemical
Description: The UV stability of IIa was evaluated using a immersion well photochemical apparatus equipped with a Hanovia 450 Watt medium pressure lamp. An aqueous solution (100 ppm in KH2 PO4 buffer pH=7) was irradiated at 25° C. with air agitation for a period of 110 minutes. The rate of photolysis was monitored by UV spectroscopy. Aliquots were taken through a side port of the apparatus into an amber vial and the absorption at 325 nm was measured. A sodium pyrithione aqueous solution (i.e., sodium OMADINE® biocide) was irradiated similarly for comparative purposes.

[2] = yeast, 37° C., five days, Sabouraud Dextrose Broth
[3] = molds: 28° C., seven days, Sabouraud Dextrose Broth
[4] = fungi, Sabouraud Dextrose Broth, molds: 28° C., seven days

| SMILES | MIC (Candida albicans; [2]) [µg/mL] | MIC (Fusarium; [3]) [µg/mL] | MIC (Aspergillus niger; [3]) [µg/mL] | MIC (Aureobasidium pullulans; [4]) [µg/mL] | photodecomposition time (decomposed in) ([1]; aqueous solution, same conditions as IIa (pH=7, 25° C., 450 Watt lamp)) [s] | MIC (Fusarium) [µg/mL] | half-life ([1]; first order, 100 ppm in KH2PO4 buffer pH=7, 25° C., 450 Watt medium pressure lamp, absorption at 325 nm, read-out: photodecomposition T1/2) [min] | MIC (Candida albicans) [µg/mL] | MIC (Aspergillus niger) [µg/mL] | MIC (Aureobasidium pullulans) [µg/mL] |
| --- | --- | --- | --- | --- | --- | --- | --- | --- | --- | --- |
| C=CC(=O)On1c(=S)n(C)c(=O)c2ccccc21 [Compound IIj] | 4 (≈ 15.3 µM) | 16 (≈ 61 µM) | 8 (≈ 30.5 µM) | 4 (≈ 15.3 µM) | – | – | – | – | – | – |
| Cn1c(=O)c2ccccc2n(OC(=O)c2ccccc2)c1=S [IIk] | 512 (≈ 1640 µM) | 512 (≈ 1640 µM) | 512 (≈ 1640 µM) | 256 (≈ 820 µM) | – | – | – | – | – | – |
| CCOC(=O)c1ccccc1N(O)C(=S)Nc1ccccc1 [Ie] | 16 (≈ 50.6 µM) | 64 (≈ 202 µM) | 64 (≈ 202 µM) | 32 (≈ 101 µM) | – | – | – | – | – | – |
| CCOC(=O)c1ccccc1N(O)C(=S)NC [Ib] | 8 (≈ 31.5 µM) | 128 (≈ 503 µM) | 8 (≈ 31.5 µM) | 8 (≈ 31.5 µM) | – | – | – | – | – | – |
| On1ccccc1=S [sodium pyrithione, reference compound] | – | – | – | – | 15 | – | – | – | – | – |
| Cn1c(=O)c2ccccc2n(O)c1=S.[Na] [IIa-Na, 1-hydroxy-3-methyl-2-thioxo-1,2-dihydroquinazoline-4(3H)-one, sodium salt] | – | – | – | – | – | 4 | – | – | – | – |
| C=CCn1c(=O)c2ccccc2n(O)c1=S [IIf] | 4 (≈ 17.1 µM) | 8 (≈ 34.1 µM) | 16 (≈ 68.3 µM) | 16 (≈ 68.3 µM) | – | – | – | – | – | – |
| O=c1[nH]c(=S)n(O)c2ccccc12 [Compound IIg] | 64 (≈ 330 µM) | 512 (≈ 2640 µM) | 1020 (≈ 5270 µM) | 128 (≈ 659 µM) | – | – | – | – | – | – |
| CNC(=S)N(O)c1ccc(C)cc1C(=O)OC [Id] | 8 (≈ 31.5 µM) | 512 (≈ 2010 µM) | 8 (≈ 31.5 µM) | 8 (≈ 31.5 µM) | – | – | – | – | – | – |
| Cn1c(=O)c2ccccc2n(O)c1=S [Compound IIa, 1-HYDROXY-3-METHYL-2-THIOXO-1,2-DIHYDROQUINAZOLINE-4(3H)-ONE] | < 2 | 128 (≈ 615 µM) | < 2 | < 2 | – | – | 55 | – | – | – |
| COn1c(=S)n(C)c(=O)c2ccccc21 [IIh] | 256 (≈ 1150 µM) | 512 (≈ 2300 µM) | 512 (≈ 2300 µM) | 512 (≈ 2300 µM) | – | – | – | – | – | – |
| C=C(C)C(=O)On1c(=S)n(C)c(=O)c2ccccc21 [IIl] | 128 (≈ 463 µM) | 512 (≈ 1850 µM) | 32 (≈ 116 µM) | 4 (≈ 14.5 µM) | – | – | – | – | – | – |
| O=c1c2ccccc2n(O)c(=S)n1-c1ccccc1 [IIe] | 16 (≈ 59.2 µM) | 64 (≈ 237 µM) | 32 (≈ 118 µM) | 16 (≈ 59.2 µM) | – | – | – | – | – | – |
| Cc1ccc2c(c1)c(=O)n(C)c(=S)n2O [IId] | < 2 | 128 (≈ 576 µM) | < 2 | 4 (≈ 18 µM) | – | – | – | – | – | – |
| Cn1c(=O)c2ccc(Cl)cc2n(O)c1=S [IIc] | < 2 | 64 (≈ 264 µM) | 4 (≈ 16.5 µM) | < 2 | – | – | – | – | – | – |
| CNC(=O)On1c(=S)n(C)c(=O)c2ccccc21 [IIn, 1-N-METHYLCARBAMATE-3-METHYL-2-THIO-1,2-DIHYDROQUINAZOLINE-4(3H)-ONE] | – | – | – | – | – | 16 (≈ 60.3 µM) | – | 4 (≈ 15.1 µM) | 8 (≈ 30.2 µM) | 8 (≈ 30.2 µM) |
| CC(=O)On1c(=S)n(C)c(=O)c2ccccc21 [IIi, 1-ACETOYLOXY-3-METHYL-2-THIOXO-1,2-DIHYDROQUINAZOLINE-4(3H)-ONE] | 2 (≈ 7.99 µM) | – | – | – | – | – | – | – | – | – |
| CNC(=S)N(O)c1cc(Cl)ccc1C(=O)OC [Ic] | < 2 | 128 (≈ 466 µM) | 8 (≈ 29.1 µM) | 4 (≈ 14.6 µM) | – | – | – | – | – | – |
| C=CCNC(=S)N(O)c1ccccc1C(=O)OCC [If] | 4 (≈ 14.3 µM) | 16 (≈ 57.1 µM) | 16 (≈ 57.1 µM) | 16 (≈ 57.1 µM) | – | – | – | – | – | – |
| Cn1c(=O)c2ccccc2n(OC(=O)O)c1=S [IIm] | 4 (≈ 15.9 µM) | 16 (≈ 63.4 µM) | 8 (≈ 31.7 µM) | 8 (≈ 31.7 µM) | – | – | – | – | – | – |
